Where a name gives a salt, the structure may show the parent alone. Read-outs that look alike come from different tables or passages of the source.
Columns and labels:
[1] = physchem; details: buffer, pH 7.3, aqueous buffer
Description: Solubility of propranolol hydrochloride in buffer solutions at 34° C. was investigated by shaking propranolol hydrochloride suspension in the solvent. After equilibration, the saturated solutions were filtered and the concentration of propranolol in the filtrates was assayed by HPLC as described above. […] Each experiment was repeated five times.

[2] = membranes incubated at pH 7.4 or pH 9.0 propranolol hydrochloride solutions prior to device preparation
Description: The thickness of the membranes was 150 μm. Solid propranolol hydrochloride (2 mg) was placed without or with pH-adjusting additives (sodium phosphate/disodium phosphate in different proportions, Tris buffer) (2 mg) on a cut piece of silicone membrane. Another silicone membrane was glued on the former so that the drug and, if present, adjuvant were encapsulated inside two membranes.
Propranolol release from the devices was studied in vitro at pH 7.4 in phosphate buffer from one side of the device in side-by-side diffusion cell. The exposed drug releasing surface was 0.7 cm^2. The released propranolol was analysed using reverse phase HPLC at 254 nm.

[3] = Dissolution rate of propranolol hydrochloride by rotating disc method; type: physicochemical; details: 34° C., 550 mOsm, μ=0.3
Text: Each experiment was repeated five times.

[4] = Release of timolol from silicone microspheres (rotating bottle method); type: physicochemical; details: for release of timolol from silicone microspheres after 1 hour: pH 7.4, 37° C., 100 mg microspheres
Description: In silicone microspheres, timolol maleate was used as a model drug and sodium phosphate and Tris buffer as release-controlling adjuvants. Spray-dried drug and adjuvants were either simply mixed as power mixtures or they were spray dried together. To prepare silicone microspheres, the drug (2-20 wt %) and, if present, pH-adjusting agent (0-10 wt %) were mixed with the silicone elastomer (an amine resistant Dow Corning X7-3012 elastomer), and the curing agent was added. One part of the curing agent is mixed in ten parts of the polymer. Vulcanization of the X7-3012 elastomers is based on a platinum catalyzed addition (hydrosilylation) reaction. Two grams of the drug-polymer mixture was dispersed in 35 grams of liquid paraffin using an overhead stirrer at 190 rpm and 22° C. The temperature was raised to 50° C. in 1 hour. After 3 hours, the heating was stopped, and the mixture gradually cooled back to 22° C. […] Microparticles were separated from paraffin by filtration, washed with n-hexane and dried at room temperature. The mean particle size of the microspheres was 150±50 μm (mean±SD) (FIG. 14) and the entrapment efficiency of timolol maleate was 60-75%. Release of timolol from the silicone microspheres was studied using the rotating bottle method (NF XIV) in pH 7.4 phosphate buffer at 37° C. The volume of dissolution medium was 3 ml and the amount of microspheres 100 mg. The release timolol was analysed using reverse phase HPLC at 294 nm.

| Structure (SMILES) | solubility [1] | initial lag time before steady drug release [2] | dissolution rate, pH 7.3 versus pH 9.4 [3] | dissolution rate ([3]; pH of dissolution medium raised from 1.6 to 7.3) | rates of propranolol release, effect of osmotic pressure (138 mOsm to 950 mOsm at pH 7.4) | rates of propranolol release, effect of osmotic pressure (295 mOsm to 960 mOsm at pH=4.6) | release profile and rate of propranolol release, effect of ionic strength (ionic strength 0.15 to 0.3) | drug release rate, effect of the surrounding pH (pH 1.6, 4.6, 7.3, 9.4) | release of timolol from silicone microspheres after 1 hour ([4]; 2 wt % drug loading) | release relative to absence of the pH-adjusting agent ([4]; 2 wt % timolol, 1 wt % Tris) | effect on release rate of adding disodium phosphate ([4]; 2 wt % timolol, 1 wt % disodium phosphate) | release of timolol from silicone microspheres after 1 hour ([4]; 20 wt % drug loading) | release relative to absence of the pH-adjusting agent ([4]; 20 wt % timolol, 10 wt % Tris) | relationship between the release of timolol and the square root of the time elapsed ([4]; pH 7.4 phosphate buffer, 37° C.) | release of timolol after 1 hour ([4]; timolol and disodium phosphate spray dried together) |
| --- | --- | --- | --- | --- | --- | --- | --- | --- | --- | --- | --- | --- | --- | --- | --- |
| CC(C)NCC(O)COc1cccc2ccccc12 (stereo not drawn) [propranolol, propranolol hydrochloride] | 94 mg/mL | possible to avoid the initial lag time | equal | increased | remained essentially constant | remained essentially constant | independent of the ionic strength of the dissolution medium | practically unaffected by the surrounding pH |  |  |  |  |  |  |  |
| CC(C)(C)NC[C@H](O)COc1nsnc1N1CCOCC1 [timolol, timolol maleate] |  |  |  |  |  |  |  |  | 27 µg | two times faster | did not affect the release rate | 520 µg | two times faster | linear relationship | 187 µg |

— US5518737A, “Peroral drug delivery system” (priority 1991, dated 1996)
